Format in all cases: functional
Assay [1] concerns the target T1, Peroxisome proliferator-activated receptor gamma (Homo sapiens, UniProt P37231).
T1 sequence (P37231 whole entry): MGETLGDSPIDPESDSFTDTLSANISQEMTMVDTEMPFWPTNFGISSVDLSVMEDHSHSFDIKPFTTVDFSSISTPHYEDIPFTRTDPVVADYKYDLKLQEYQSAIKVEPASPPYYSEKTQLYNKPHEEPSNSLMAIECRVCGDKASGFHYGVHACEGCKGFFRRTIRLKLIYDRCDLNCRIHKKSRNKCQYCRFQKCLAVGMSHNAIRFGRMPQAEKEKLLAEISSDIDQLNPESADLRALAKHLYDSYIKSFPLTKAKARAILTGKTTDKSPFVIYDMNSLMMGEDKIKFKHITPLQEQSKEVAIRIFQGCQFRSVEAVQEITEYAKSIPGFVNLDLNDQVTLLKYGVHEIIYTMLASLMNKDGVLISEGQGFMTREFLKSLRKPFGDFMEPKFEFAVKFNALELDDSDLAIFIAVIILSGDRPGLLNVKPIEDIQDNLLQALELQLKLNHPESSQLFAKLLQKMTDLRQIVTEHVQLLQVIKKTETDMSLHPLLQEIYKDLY
In words: Agonist activity at human recombinant PPARgamma by GAL4 transactivation assay.

Assay [2] concerns the target T2, Peroxisome proliferator-activated receptor delta (Homo sapiens, UniProt Q03181).
T2 sequence (Q03181 whole entry): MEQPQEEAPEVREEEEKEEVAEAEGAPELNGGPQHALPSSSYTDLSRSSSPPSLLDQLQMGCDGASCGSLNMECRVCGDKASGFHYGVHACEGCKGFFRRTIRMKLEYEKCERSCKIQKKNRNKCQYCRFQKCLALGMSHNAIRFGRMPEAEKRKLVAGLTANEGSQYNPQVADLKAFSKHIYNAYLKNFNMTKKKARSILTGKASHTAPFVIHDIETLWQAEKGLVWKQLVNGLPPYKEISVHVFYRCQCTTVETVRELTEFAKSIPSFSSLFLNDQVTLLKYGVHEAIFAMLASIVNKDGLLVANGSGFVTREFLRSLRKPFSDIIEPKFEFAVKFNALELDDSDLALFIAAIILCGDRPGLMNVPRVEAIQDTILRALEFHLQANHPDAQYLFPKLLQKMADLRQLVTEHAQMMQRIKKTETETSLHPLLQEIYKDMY
Briefly: Agonist activity at human recombinant PPARdelta by GAL4 transactivation assay.

In assay [3] the test system is Mus musculus. Briefly: Increase in plasma HDL-C in human apoA1 transgenic mouse at 300 mg/kg after 14 days.
The target in assay [4] is T3, Peroxisome proliferator-activated receptor alpha (Homo sapiens, UniProt Q07869).
T3 sequence (Q07869 whole entry): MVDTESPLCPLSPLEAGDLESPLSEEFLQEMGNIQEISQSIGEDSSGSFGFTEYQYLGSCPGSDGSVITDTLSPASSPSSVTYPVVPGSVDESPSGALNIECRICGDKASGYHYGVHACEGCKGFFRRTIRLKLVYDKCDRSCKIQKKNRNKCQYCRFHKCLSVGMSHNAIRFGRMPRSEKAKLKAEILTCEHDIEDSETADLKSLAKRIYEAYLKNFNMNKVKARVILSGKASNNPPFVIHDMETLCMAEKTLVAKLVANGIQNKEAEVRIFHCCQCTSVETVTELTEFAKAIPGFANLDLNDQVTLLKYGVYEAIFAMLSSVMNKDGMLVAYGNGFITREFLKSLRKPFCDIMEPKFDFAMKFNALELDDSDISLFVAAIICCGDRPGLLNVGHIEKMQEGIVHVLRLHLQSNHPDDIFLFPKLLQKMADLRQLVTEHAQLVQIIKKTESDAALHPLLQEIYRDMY
In words: Agonist activity at human recombinant PPARalpha by GAL4 transactivation assay.

Assay [5] concerns Rattus norvegicus. Briefly: Increase in liver weight in Sprague-Dawley rat at 1 mg/kg after 7 days.
Assay [6] relates to Rattus norvegicus. Briefly: Decrease in triglyceride level in Sprague-Dawley rat at 1 mg/kg after 7 days. Further details: scale not given: the % may be the effect or the level left; call rule not given here.
For assay [7], the system named is Mus musculus. Briefly: Increase in plasma HDL-C in human apoA1 transgenic mouse at 3 mg/kg after 14 days.
Assay [8] relates to Mus musculus. Briefly: Increase in plasma HDL-C in human apoA1 transgenic mouse at 1 mg/kg after 14 days.

EC50 and Activity data for 32 molecules are collected here from ChEMBL document CHEMBL1140024 (Bioorg Med Chem Lett, 2007).

For orientation: EC50 means the concentration needed to bring the measured effect to its halfway point. Consider `CCC(Oc1cccc(CN(CCCOc2ccc(C)cc2)c2nc3ccccc3o2)c1)C(=O)O` (centres undefined), for which the EC50 was 210 nM in assay [1] (read-out: EC50) and 120 nM in assay [2] (read-out: EC50).
With `CC(C)OC(=O)C(C)(C)Oc1ccc(C(=O)c2ccc(Cl)cc2)cc1` [FENOFIBRATE], the Activity in the assay on Mus musculus [3] amounted to 145%.
With `CCC(Oc1cccc(CN(CCCOc2ccccc2)c2nc3cccc(F)c3o2)c1)C(=O)O` (centres undefined), the EC50 was 530 nM in assay [1] (read-out: EC50), 2 nM in assay [4] (read-out: EC50) and 8000 nM in assay [2] (read-out: EC50).
With `CC(C)(Oc1cccc(CN(CCOc2ccccc2)c2nc3ccccc3o2)c1)C(=O)O`, the results for the EC50 in assay [1] (read-out: EC50) and in assay [4] (read-out: EC50) were 2100 nM and 630 nM, respectively.
Take `CC(Oc1cccc(CN(CCCOc2ccccc2)c2nc3ccccc3o2)c1)C(=O)O` (centres undefined): in assay [2] (read-out: EC50), the EC50 came out at 2700 nM.
`CCC(Oc1cccc(CN(CCCOc2ccc(OC)cc2)c2nc3ccccc3o2)c1)C(=O)O` (centres undefined): the EC50 in assay [1] (read-out: EC50) was over 10000 nM.
As for `CC[C@H](Oc1cccc(CN(CCCOc2ccc(OC)cc2)c2nc3ccccc3o2)c1)C(=O)O`, the EC50 in assay [1] (read-out: EC50) turned out to be 1310 nM; in assay [2] (read-out: EC50), 1800 nM.
In the case of `CC(C)(Oc1cccc(CN(CCCOc2ccccc2)c2nc3ccccc3o2)c1)C(=O)O`, the EC50 in assay [1] (read-out: EC50) came to 5000 nM; in assay [4] (read-out: EC50) it was 190 nM; in assay [2] (read-out: EC50), 1400 nM.
As to `CC[C@@H](Oc1cccc(CN(CCCOc2ccccc2)c2nc3ccccc3o2)c1)C(=O)O`, the values for the Activity in the assay with Rattus norvegicus [5], in the assay with Rattus norvegicus [6] and in the assay with Mus musculus [7] were 19%, -51% and 201%, respectively.
With `CCC(Oc1cccc(CN(CCCOc2ccccc2)c2nc3cc(C(F)(F)F)ccc3o2)c1)C(=O)O` (centres undefined), the EC50 is 400 nM in assay [1] (read-out: EC50), 23 nM in assay [4] (read-out: EC50) and 160 nM in assay [2] (read-out: EC50).
As to `CCC(Oc1cccc(CN(CCCOc2ccccc2)c2nc3c(O)cccc3o2)c1)C(=O)O` (centres undefined), the half-maximal effective concentration (EC50) was determined as 2000 nM in assay [1] (read-out: EC50), 160 nM in assay [4] (read-out: EC50) and 1900 nM in assay [2] (read-out: EC50).
Consider `CCC(Oc1cccc(CN(CCCOc2ccc(C)cc2C)c2nc3ccccc3o2)c1)C(=O)O` (centres undefined), for which the EC50 amounted to 130 nM in assay [1] (read-out: EC50), 1 nM in assay [4] (read-out: EC50) and 110 nM in assay [2] (read-out: EC50).
Take `CC(C)(Oc1ccc(CN(CCOc2ccccc2)c2nc3ccccc3o2)cc1)C(=O)O`: the EC50 entry in assay [1], in assay [4] and in assay [2] was “Not Active” in each case.
Consider `CCC(Oc1cccc(CN(CCCOc2ccccc2)c2nc3ccc(F)cc3o2)c1)C(=O)O` (centres undefined), for which the EC50 in assay [1] (read-out: EC50) came to 1100 nM; in assay [4] (read-out: EC50), 5 nM; in assay [2] (read-out: EC50) it was 1900 nM.
`CCC(Oc1cccc(CN(CCCOc2ccc(S(=O)(=O)OC)cc2)c2nc3ccccc3o2)c1)C(=O)O` (centres undefined): the EC50 was over 10000 nM in assay [1] (read-out: EC50) and 120 nM in assay [4] (read-out: EC50).
On to `CCC(Oc1cccc(CN(CCCOc2ccc(F)cc2F)c2nc3ccccc3o2)c1)C(=O)O` (centres undefined), for which the EC50 in assay [1] (read-out: EC50) was 2100 nM; in assay [4] (read-out: EC50) it was 11 nM; in assay [2] (read-out: EC50), 6500 nM.
The matching figures for `CCC(Oc1cccc(CN(CCCOc2ccc(O)cc2)c2nc3ccccc3o2)c1)C(=O)O` (centres undefined): 1400 nM, 260 nM and 3 nM.
As to `CCC(Oc1cccc(CN(CCCOc2ccc(F)cc2)c2nc3ccccc3o2)c1)C(=O)O` (centres undefined), the EC50 was over 10000 nM in assay [1] (read-out: EC50) and 8 nM in assay [4] (read-out: EC50).
Turning to `CC[C@H](Oc1cccc(CN(CCCOc2ccccc2)c2nc3ccccc3o2)c1)C(=O)O`, the EC50 in assay [1] (read-out: EC50) was 870 nM; in assay [4] (read-out: EC50), 130 nM; in assay [2] (read-out: EC50) it was 1660 nM.
For `CCC(Oc1cccc(CN(CCCOc2ccccc2)c2nc3cc(C)ccc3o2)c1)C(=O)O` (centres undefined), in that order: over 10000 nM, 100 nM and 5000 nM.
For `CC[C@H](Oc1cccc(CN(CCCOc2ccc(F)cc2)c2nc3ccccc3o2)c1)C(=O)O`, in that order: 1190 nM, 20 nM and 1570 nM.
On to `CC(C)(Oc1ccccc1CN(CCOc1ccccc1)c1nc2ccccc2o1)C(=O)O`, for which the EC50 entry in assay [1], in assay [4] and in assay [2] was “Not Active” throughout.
For `CCC(Oc1cccc(CN(CCCOc2ccccc2)c2nc3cc(O)ccc3o2)c1)C(=O)O` (centres undefined), the EC50 in assay [1] (read-out: EC50) was over 10000 nM; in assay [4] (read-out: EC50), 180 nM; in assay [2] (read-out: EC50) it was 140 nM.
For the molecule `CCC(Oc1cccc(CN(CCCOc2ccccc2)c2nc3ccccc3o2)c1)C(=O)O` (centres undefined), the EC50 is over 10000 nM in assay [1] (read-out: EC50) and 9 nM in assay [4] (read-out: EC50).
On to `CCC(Oc1cccc(CN(CCCOc2ccc(F)c(F)c2)c2nc3ccccc3o2)c1)C(=O)O` (centres undefined), for which the figures for the EC50 in assay [1] (read-out: EC50), in assay [4] (read-out: EC50) and in assay [2] (read-out: EC50) were 1800 nM, 2 nM and 1300 nM, respectively.
The matching figures for `CCC(Oc1cccc(CN(CCCOc2ccc3c(c2)OCO3)c2nc3ccccc3o2)c1)C(=O)O` (centres undefined): 1800 nM, 7 nM and 1700 nM.
The matching figures for `CCC(Oc1cccc(CN(CCCOc2cccc([N+](=O)[O-])c2)c2nc3ccccc3o2)c1)C(=O)O` (centres undefined): over 10000 nM, 24 nM and 1400 nM.
Consider `CC[C@@H](Oc1cccc(CN(CCCOc2ccc(F)cc2)c2nc3ccccc3o2)c1)C(=O)O`, for which the Activity in the assay on Rattus norvegicus [5] is on record as 20%; in the assay with Rattus norvegicus [6], -46%; with Mus musculus [7] it was 147%.
For the molecule `CCC(Oc1cccc(CN(CCCOc2ccc(C)c(C)c2)c2nc3ccccc3o2)c1)C(=O)O` (centres undefined), the values for the EC50 in assay [1] (read-out: EC50), in assay [4] (read-out: EC50) and in assay [2] (read-out: EC50) were 750 nM, 1 nM and 830 nM, respectively.
With `CC(Oc1cccc(CCN(CCCOc2ccccc2)c2nc3ccccc3o2)c1)C(=O)O` (centres undefined), the 50% effective concentration (EC50) was determined as 1800 nM in assay [1] (read-out: EC50), 10 nM in assay [4] (read-out: EC50) and 2300 nM in assay [2] (read-out: EC50).
On to `CC[C@@H](Oc1cccc(CN(CCCOc2ccc(OC)cc2)c2nc3ccccc3o2)c1)C(=O)O` [PEMAFIBRATE], for which the Activity in the assay with Rattus norvegicus [5] is on record as 25%; in the assay on Rattus norvegicus [6] it was -49%; in the assay on Mus musculus [8], 194%. Further, the EC50 in assay [2] (read-out: EC50) worked out at 1580 nM.
Consider `CC(C)(Oc1cccc(CCCN(CCOc2ccccc2)c2nc3ccccc3o2)c1)C(=O)O`, for which the figures for the EC50 in assay [1] (read-out: EC50) and in assay [2] (read-out: EC50) were 100 nM and 800 nM, respectively.
